These results are taken from the SangsterLogP compilation.

The term logD denotes lipophilicity at a set pH, counting ionised and neutral species. Lower therefore signals lower lipophilicity. By logP is commonly meant the decadic logarithm of the partition coefficient of the neutral form, usually between octanol and water. Read a low logP as a more hydrophilic compound.

Data set [1] is described as follows: method code SF-AS, from Hansch, C., Leo, A., & Hoekman, D. (1995). Exploring QSAR: hydrophobic, electronic, and steric constants (Vol. 2). Washington, DC: American Chemical Society.
Data set [2] in a line: method code G, from Hansch, C., Leo, A., & Hoekman, D. (1995). Exploring QSAR: hydrophobic, electronic, and steric constants (Vol. 2). Washington, DC: American Chemical Society.
Data set [3] is described as follows: method code SF-HPLC, from Hansch, C., Leo, A., & Hoekman, D. (1995). Exploring QSAR: hydrophobic, electronic, and steric constants (Vol. 2). Washington, DC: American Chemical Society. The note with it: pH 7.4.

The compound `Cc1ccccc1NN=C(C#N)C#N` displayed a logD in data set [1] (pH 7.2) of 2.38. `C#CC(C)(C)NS(=O)(=O)c1ccc(OC)c(C(=O)NCC2CCCN2CC)c1` (centres undefined): the logP came out at 2.8. In data set [1], `c1ccc2c(c1)OCCOCCOc1ccccc1OCCO2` gave a logP of 2.21. On the same count and under the same terms, in the case of `CC(=O)c1ccc2c(c1)OCCOCCOCCOCCOCCO2` it was -0.05. `CCN1CCCC1CNC(=O)c1cc(N(C)S(C)(=O)=O)ccc1OC` (centres undefined) showed a logP of 2.29. In turn, `CCC(=O)C(Cc1ccccc1)S(=O)(=O)c1ccc(C)cc1` (centres undefined) showed a logP in data set [2] of 2.45. For `c1ccc(Cn2cccc2)cc1`, the logP was determined as 2.71. For the compound `C1=Cc2ccc3c4c(ccc(c24)C1)-c1ccccc1-3`, the logP is 5.78. The same measure, in the same setting: in the case of `CCN1CCCC1CNC(=O)c1cc(NS(N)(=O)=O)ccc1OC` (centres undefined) it was 2.02. Take `O=c1[nH]c2ccccc2n1C1CCN(CCOc2ccccc2)CC1`: the lipophilicity (logP) is 4.18. Compound `O=C(NP(=O)(N1CC1)N1CC1)c1ccc(Br)cc1` gave a logD in data set [1] (pH 7.4) of 0.97. In data set [1] (pH 7.2), `Cc1ccc(NN=C(C#N)C#N)c([N+](=O)[O-])c1` displayed a logD of 2.5. With `CNc1nc(Cl)c(SC)c(N2CCN(C)CC2)n1`, the logP is 2.99. Compound `O=C(O)Cc1nn(Cc2ccc(Br)cc2F)c(=O)c2ccccc12` registered a logP of 2.68. The compound `CN1C(C(=O)Nc2ccccn2)=C(O)c2sc(Cl)cc2S1(=O)=O` yielded a logP of 2.62. In turn, `c1ccc(NCCCOc2cccc(CN3CCCCC3)c2)nc1` showed a log partition coefficient (logP) of 4.29. Regarding `CCC(=O)C(Cc1ccccc1)S(=O)(=O)c1ccccc1` (centres undefined), in data set [2], the logP was determined as 1.82.

For `CC(C)(C)c1ccc2c(c1)OCCOCCOCCOCCOc1cc(C(C)(C)C)ccc1OCCOCCOCCOCCO2`, in data set [1], the logP was 3.32. `c1ccc(Cn2cnnn2)cc1` came in with a logP of 1.36.

In data set [1] (pH 6.4), `CC1=NN(CCOc2ccc3ccccc3c2)C(=O)C1` showed a logD of 2.74.

For the compound `CCC(=O)C(Cc1ccc(OC)cc1)S(=O)(=O)c1ccc(C)cc1` (centres undefined), the logP in data set [2] was found to be 2.47. Compound `OCCN1CCN(CCCC2c3ccc(F)cc3Sc3ccc(C(F)(F)F)cc32)CC1` (centres undefined) had a logP of 4.47.

Compound `CCN1CCCC1CNC(=O)c1cc(N(C)S(C)(=O)=O)c(Cl)cc1OC` (centres undefined) showed a logP of 2.62. On the same count and under the same terms, in the case of `C#CCNS(=O)(=O)c1ccc(OC)c(C(=O)NCC2CCCN2CC)c1` (centres undefined) it was 2.42.

In data set [1] (pH 2.1), `O=C(O)C[N+]1([O-])CCN(C(=O)Cn2c(=O)sc3ccc(Cl)cc32)CC1` had a logD of 0.21. For the compound `N#CC(C#N)=NNc1ccccc1C(F)(F)F`, the logD in data set [1] (pH 7.2) is 4.2. In turn, `O=C(Cn1c(=O)sc2ccc(Cl)cc21)N1CC[N+]([O-])(CCO)CC1` gave a logD in data set [1] (pH 7.4) of 0.05. `CCC(=O)C(Cc1ccc(C)cc1)S(=O)(=O)c1ccccc1` (centres undefined) gave a logP in data set [2] of 2.7. In the case of `O=C1NC(=O)[C@@]2(CCOc3ccc(F)cc32)N1`, the log partition coefficient (logP) was 0.78. On the same count and under the same terms, to `Cc1cc2c(s1)Nc1ccc(F)cc1N=C2N1CCN(C)CC1` belongs 2.98.

In data set [1] (pH 7.2), `N#CC(C#N)=NNc1ccccc1Br` showed a logD of 3.11. Compound `CCc1cccc2c1OCCOCCOCCOCCOCCO2` displayed a logP in data set [1] of 0.98. For the compound `CCCN1CCCC1CNC(=O)c1cc(S(N)(=O)=O)ccc1OC` (centres undefined), the logP came to 2.06.

With `FC(F)(F)C(=NOCC1OCCO1)c1ccc(Cl)cc1`, the logP came out at 3.9. Still for that read-out and setting: to `c1ccc(Cn2ncnn2)cc1` belongs 1.03. In data set [3], `COc1ccc2cc(C(C)C(=O)OC(O)C(=O)N(C)CCO)ccc2c1` (centres undefined) came in with a pH-dependent lipophilicity (logD) of 2.01. Compound `COc1cc(Cc2cnc(N)nc2N)cc(Br)c1OC` registered a logP of 2.23. In turn, `OCCN1CCN(C2CC(c3ccc(F)cc3)c3ccc(F)cc32)CC1` (centres undefined) came in with a logP of 3.3. Still for that read-out and setting: to `OCCN1CCN(C2CC(c3ccc(F)cc3)c3ccccc32)CC1` (centres undefined) belongs 2.95. `O=C(NP(=O)(N1CC1)N1CC1)c1ccccc1I` came in with a logD in data set [1] (pH 7.4) of 1.05. `CCC(=O)C(Cc1ccc(C)cc1)S(=O)(=O)c1ccc(C)cc1` (centres undefined): the logP in data set [2] was 3.3.

`CCC(=O)C(Cc1ccc(Cl)cc1)S(=O)(=O)c1ccccc1` (centres undefined) displayed a logP in data set [2] of 2.69. As to `CCc1c(C)[nH]c2c1C(=O)C1CN(C)CCC1C2` (centres undefined), the logP was 1.78. The same measure, in the same setting: to `O=C(O)Cc1c[nH]c2ccc(O)cc12` belongs 1.17. Consider `N#CC(C#N)=NNc1cccc(Cl)c1Cl`, for which the logD in data set [1] (pH 7.2) amounted to 3.85. In turn, `OCCC1CCN(CC/C=C2\c3ccc(F)cc3Sc3ccc(C(F)(F)F)cc32)CC1` returned a logP of 4.09. `COc1ccc(S(N)(=O)=O)cc1C(=O)NC1CC2CCCC1N2Cc1ccccc1` (centres undefined) had a log partition coefficient (logP) of 2.88. Same read-out and setting: in the case of `CSc1ccc2c(c1)C(N1CCN(CCO)CC1)CC2c1ccc(F)cc1` (centres undefined) it was 3.8; in that of `OC1(c2ccc(Cl)cc2)CCN(CCCC2(c3ccc(F)cc3)OCCO2)CC1`, 3.84. Still for that read-out and setting: in the case of `CC1(C)CN(CCN2CCN(c3cccc(Cl)c3)C2=O)C1` it was 3.91; in that of `O=C1NCN(c2ccccc2)C12CCN(CCCC(c1ccc(F)cc1)c1ccc(F)cc1)CC2`, 5.86. With `O=C(O)Cc1nn(Cc2nc3cc(F)ccc3s2)c(=O)c2ccccc12`, the logP was 1.86. Same read-out and setting: in the case of `CCN1CCC[C@H]1CNC(=O)c1cc(I)ccc1OC` it was 3.23.

On to `CCC(=O)C(Cc1ccc(Cl)cc1)S(=O)(=O)c1ccc(C)cc1` (centres undefined), for which, in data set [2], the lipophilicity (logP) was 3.43.
